This is an account of results in patent US4065619A, “7-(α-Sulfoacylamido)cephalosporins” (Takeda Chemical Industries, Ltd., priority 1971, dated 1977).

SMILES strings stand for the structures. ≈ marks a conversion by molar mass, not a printed value.

Common to all, as to format: cell-based
Test [1] deals with Pseudomonas aeruginosa (10490). Briefly: Minimum inhibitory concentration, Pseudomonas aeruginosa (10490).
Test [2] deals with Staphylococcus aureus (No. 87, penicillin G resistant). Description: Minimum inhibitory concentration, Staphylococcus aureus (No. 87, penicillin G resistant).
The test system of test [3] is Pseudomonas aeruginosa (Pd 1). Description: Minimum inhibitory concentration, Pseudomonas aeruginosa (Pd 1).
Test [4] relates to Pseudomonas aeruginosa (NCTC 10490). Description: Minimum inhibitory concentration, Pseudomonas aeruginosa (NCTC 10490). Conditions: NCTC10490.
In test [5] the test system is Pseudomonas aeruginosa (Pd 12). Briefly: Minimum inhibitory concentration, Pseudomonas aeruginosa (Pd 12).
For the next test, the system named is Pseudomonas aeruginosa. Description: Minimum inhibitory concentration, Pseudomonas aeruginosa (strain not given).
For test [6], the system named is Staphylococcus aureus (209P). Description: Minimum inhibitory concentration, Staphylococcus aureus 209P.
The test system of test [7] is Pseudomonas aeruginosa (T-3). Briefly: Minimum inhibitory concentration, Pseudomonas aeruginosa (T-3).
The subject of test [8] is Staphylococcus aureus (penicillin G resistant). Briefly: Minimum inhibitory concentration, Staphylococcus aureus (penicillin G resistant).
The subject of test [9] is Pseudomonas aeruginosa (Pd 13). Description: Minimum inhibitory concentration, Pseudomonas aeruginosa (Pd 13).
Test [10] deals with Pseudomonas aeruginosa (NCTC). Briefly: Minimum inhibitory concentration, Pseudomonas aeruginosa (NCTC).

Turning to `CCCCC(C(=O)NC1C(=O)N2C(C(=O)[O-])=C(C[n+]3ccccc3)CSC12)S(=O)(=O)O` (centres unmarked) [Example 7], the MIC in test [1] and in test [2] was 2 µg/mL (≈ 4.26 µM) in each case.
In the case of `Cc1cccc[n+]1CC1=C(C(=O)[O-])N2C(=O)[C@@H](NC(=O)C(c3ccccc3)S(=O)(=O)O)[C@H]2SC1` (stereo partly drawn) [Example 5, sodium N-[7-(α-sulfophenylacetamido)-ceph-3-em-3-ylmethyl]-2'-methylpyridinium-4-carboxylate], the minimum inhibitory concentration (MIC) (usually the lowest concentration found to suppress growth) was determined as 3 µg/mL in [3] and 2 µg/mL in [4].
Turning to `O=C([O-])C1=C(C[n+]2cccc(C(=O)O)c2)CS[C@@H]2[C@H](NC(=O)C(c3ccccc3)S(=O)(=O)O)C(=O)N12` (some centres unmarked), 5 µg/mL (≈ 9.37 µM) was the least that counted as inhibitory in [5] (MIC).
Consider `Nc1ccc(C(C(=O)NC2C(=O)N3C(C(=O)[O-])=C(C[n+]4ccccc4)CSC23)S(=O)(=O)O)cc1` (stereo not drawn) [Example 9, sodium 7-[α-sulfo-α-(p-aminophenyl)acctamido]-3-(pyridiniummethyl)ceph-3-em-4-carboxylate], for which the MIC (in the test on Pseudomonas aeruginosa; in test [6]) was 5 µg/mL each time.
Consider `O=C([O-])C1=C(C[n+]2ccccc2)CS[C@@H]2[C@H](NC(=O)C(c3ccccc3)S(=O)(=O)O)C(=O)N12` (some centres unmarked) [Example 1], for which the minimum inhibitory concentration (MIC) in test [3] came to 2 µg/mL (≈ 4.09 µM); in [7], 5 µg/mL (≈ 10.2 µM); in [5] it was 10 µg/mL (≈ 20.4 µM); in test [6], 1 µg/mL (≈ 2.04 µM); in [8] it was 2 µg/mL (≈ 4.09 µM); in [9], 5 µg/mL (≈ 10.2 µM). In [4], it took 1 µg/mL (≈ 2.04 µM) to inhibit growth (MIC).
Turning to `NC(=O)c1cc[n+](CC2=C(C(=O)[O-])N3C(=O)[C@@H](NC(=O)C(c4ccccc4)S(=O)(=O)O)[C@H]3SC2)cc1` (stereo partly drawn) [Example 3, sodium N-[7-(α-sulfophenylacetamido)ceph-3-em-3-ylmethyl]-4'-carbamoyl-pyridinium-4-carboxylate], the results for the MIC in [3] and in [10] were 1 µg/mL and 0.5 µg/mL, respectively.
`O=C([O-])C1=C(C[n+]2cccc3ccccc32)CS[C@@H]2[C@H](NC(=O)C(c3ccccc3)S(=O)(=O)O)C(=O)N12` (some centres unmarked) displayed an MIC in test [5] of 5 µg/mL (≈ 9.27 µM).
The same measure, in the same setting: the result for `NNC(=O)c1cc[n+](CC2=C(C(=O)[O-])N3C(=O)[C@@H](NC(=O)C(c4ccccc4)S(=O)(=O)O)[C@H]3SC2)cc1` (some centres unmarked) reads 10 µg/mL (≈ 18.3 µM); that for `O=C([O-])C1=C(C[n+]2ccc3ccccc3c2)CS[C@@H]2[C@H](NC(=O)C(c3ccccc3)S(=O)(=O)O)C(=O)N12` (some centres unmarked), 5 µg/mL (≈ 9.27 µM).
Consider `O=C([O-])C1=C(C[n+]2ccccc2)CS[C@@H]2[C@H](NC(=O)C(c3ccsc3)S(=O)(=O)O)C(=O)N12` (some centres unmarked) [Example 13], for which the figures for the MIC in test [3] and in [4] were 2 µg/mL (≈ 4.04 µM) and 1 µg/mL (≈ 2.02 µM), respectively.
For the compound `NC(=O)c1ccc[n+](CC2=C(C(=O)[O-])N3C(=O)[C@@H](NC(=O)C(c4ccccc4)S(=O)(=O)O)[C@H]3SC2)c1` (some centres unmarked), in test [5], the lowest concentration to inhibit growth (MIC) was 1 µg/mL (≈ 1.88 µM).
The same measure, in the same setting: under `NC(=O)c1cc[n+](CC2=C(C(=O)[O-])N3C(=O)[C@@H](NC(=O)C(c4ccccc4)S(=O)(=O)O)[C@H]3SC2)cc1` (some centres unmarked) [drawing 13] stands 0.5 µg/mL (≈ 0.939 µM).
